Reference: ChEMBL document CHEMBL3885881, “DrugMatrix”

Species: Rattus norvegicus
Experiment: DrugMatrix - Regimen: Daily Repeat
Type: toxicity, organism-based, Sprague-Dawley
Parameters: regimen Daily Repeat, gender Male, age 6-8 weeks
Details: in vivo, po, route oral GAVAGE, vehicle 100 % SALINE; for ABSOLUTE BASOPHIL / ABSOLUTE EOSINOPHIL / ABSOLUTE LYMPHOCYTE / ABSOLUTE MONOCYTE / BASOPHIL / EOSINOPHIL / ERYTHROCYTE COUNT / HEMATOCRIT / HEMOGLOBIN / LEUKOCYTE COUNT / LYMPHOCYTE / MEAN CORPUSCULAR HEMOGLOBIN / MEAN CORPUSCULAR HEMOGLOBIN CONCENTRATION / MEAN CORPUSCULAR VOLUME / MONOCYTE / NEUTROPHIL / PLATELET COUNT: tissue Blood; for ALANINE AMINOTRANSFERASE / ALBUMIN / ALKALINE PHOSPHATASE / ASPARTATE AMINOTRANSFERASE / BLOOD UREA NITROGEN / CARBON DIOXIDE / CHLORIDE / CHOLESTEROL / CREATINE PHOSPHOKINASE / CREATININE / GLUCOSE / LACTATE DEHYDROGENASE / LIPASE / PHOSPHORUS / POTASSIUM / SODIUM / TOTAL BILIRUBIN / TOTAL PROTEIN / URIC ACID: tissue Plasma
[1] = 0 mg/kg, 72 h, dose level Control, time 3 day
[2] = 0 mg/kg, 120 h, dose level Control, time 5 day
[3] = 0 mg/kg, […], dose level Control, time 14 day
[4] = […], 72 h, dose 7.5 mg/Kg, dose level High, time 3 day
[5] = […], 120 h, dose 7.5 mg/Kg, dose level High, time 5 day

Nc1ncnc2c1ncn2[C@@H]1O[C@H](CO)[C@@H](O)[C@H]1F [2'-BETA-FLUORO-2',3'-DEOXYADENOSINE]
ABSOLUTE BASOPHIL [1]: 140 cells/µL | ABSOLUTE EOSINOPHIL [1]: 43.3 cells/µL | ABSOLUTE LYMPHOCYTE [1]: 7570 cells/µL | ABSOLUTE MONOCYTE [1]: 160 cells/µL | BASOPHIL [1]: 1.47% | EOSINOPHIL [1]: 0.47% | ERYTHROCYTE COUNT [1]: 6.68 x10E6/uL | HEMATOCRIT [1]: 44.33% | HEMOGLOBIN [1]: 14.43 G/DL | LEUKOCYTE COUNT [1]: 9.33 x10E3/uL | LYMPHOCYTE [1]: 81.23% | MEAN CORPUSCULAR HEMOGLOBIN [1]: 21.67 pg | MEAN CORPUSCULAR HEMOGLOBIN CONCENTRATION [1]: 32.6 G/DL | MEAN CORPUSCULAR VOLUME [1]: 66.43 fL | MONOCYTE [1]: 1.73% | NEUTROPHIL [1]: 14.7% | PLATELET COUNT [1]: 1341.67 x10E3/uL | ALANINE AMINOTRANSFERASE [1]: 31 u/L | ALBUMIN [1]: 4.03 G/DL | ALKALINE PHOSPHATASE [1]: 447 u/L | ASPARTATE AMINOTRANSFERASE [1]: 61.33 u/L | BLOOD UREA NITROGEN [1]: 15.67 mg/dL | CARBON DIOXIDE [1]: 43 mmol/L | CHLORIDE [1]: 103.33 MEQ/L | CHOLESTEROL [1]: 83.67 mg/dL | CREATINE PHOSPHOKINASE [1]: 174.33 u/L | CREATININE [1]: 0.4 mg/dL | GLUCOSE [1]: 173 mg/dL | LACTATE DEHYDROGENASE [1]: 87.67 u/L | LIPASE [1]: 17.33 u/L | PHOSPHORUS [1]: 10.27 mg/dL | POTASSIUM [1]: 6.47 MEQ/L | SODIUM [1]: 143.67 MEQ/L | TOTAL BILIRUBIN [1]: 0.37 mg/dL | TOTAL PROTEIN [1]: 6.63 G/DL | URIC ACID [1]: 1.03 mg/dL | ABSOLUTE BASOPHIL [2]: 53.3 cells/µL | ABSOLUTE EOSINOPHIL [2]: 210 cells/µL | ABSOLUTE LYMPHOCYTE [2]: 8220 cells/µL | ABSOLUTE MONOCYTE [2]: 200 cells/µL | BASOPHIL [2]: 0.53% | EOSINOPHIL [2]: 2.1% | ERYTHROCYTE COUNT [2]: 7 x10E6/uL | HEMATOCRIT [2]: 44% | HEMOGLOBIN [2]: 14.53 G/DL | LEUKOCYTE COUNT [2]: 10.44 x10E3/uL | LYMPHOCYTE [2]: 78.07% | MEAN CORPUSCULAR HEMOGLOBIN [2]: 20.77 pg | MEAN CORPUSCULAR HEMOGLOBIN CONCENTRATION [2]: 33 G/DL | MEAN CORPUSCULAR VOLUME [2]: 62.87 fL | MONOCYTE [2]: 1.87% | NEUTROPHIL [2]: 16.8% | PLATELET COUNT [2]: 1104.33 x10E3/uL | ALANINE AMINOTRANSFERASE [2]: 31.67 u/L | ALBUMIN [2]: 3.93 G/DL | ALKALINE PHOSPHATASE [2]: 394.67 u/L | ASPARTATE AMINOTRANSFERASE [2]: 65.67 u/L | BLOOD UREA NITROGEN [2]: 15.67 mg/dL | CARBON DIOXIDE [2]: 40.67 mmol/L | CHLORIDE [2]: 104.33 MEQ/L | CHOLESTEROL [2]: 66.33 mg/dL | CREATINE PHOSPHOKINASE [2]: 346.67 u/L | CREATININE [2]: 0.33 mg/dL | GLUCOSE [2]: 176.67 mg/dL | LACTATE DEHYDROGENASE [2]: 109 u/L | LIPASE [2]: 14.33 u/L | PHOSPHORUS [2]: 11.17 mg/dL | POTASSIUM [2]: 6.53 MEQ/L | SODIUM [2]: 146 MEQ/L | TOTAL BILIRUBIN [2]: 0.37 mg/dL | URIC ACID [2]: 0.97 mg/dL | ABSOLUTE BASOPHIL [3]: 93.3 cells/µL | ABSOLUTE EOSINOPHIL [3]: 80 cells/µL | ABSOLUTE LYMPHOCYTE [3]: 6890 cells/µL | ABSOLUTE MONOCYTE [3]: 170 cells/µL | BASOPHIL [3]: 1% | EOSINOPHIL [3]: 0.83% | ERYTHROCYTE COUNT [3]: 7.03 x10E6/uL | HEMATOCRIT [3]: 43.4% | HEMOGLOBIN [3]: 14.83 G/DL | LEUKOCYTE COUNT [3]: 8.94 x10E3/uL | LYMPHOCYTE [3]: 77.93% | MEAN CORPUSCULAR HEMOGLOBIN [3]: 21.1 pg | MEAN CORPUSCULAR HEMOGLOBIN CONCENTRATION [3]: 34.17 G/DL | MEAN CORPUSCULAR VOLUME [3]: 61.77 fL | MONOCYTE [3]: 1.33% | NEUTROPHIL [3]: 18% | PLATELET COUNT [3]: 1097.33 x10E3/uL | ALANINE AMINOTRANSFERASE [3]: 32 u/L | ALBUMIN [3]: 3.83 G/DL | ALKALINE PHOSPHATASE [3]: 334.67 u/L | ASPARTATE AMINOTRANSFERASE [3]: 69.33 u/L | BLOOD UREA NITROGEN [3]: 16 mg/dL | CARBON DIOXIDE [3]: 40 mmol/L | CHLORIDE [3]: 105.67 MEQ/L | CHOLESTEROL [3]: 70.33 mg/dL | CREATINE PHOSPHOKINASE [3]: 144.67 u/L | CREATININE [3]: 0.3 mg/dL | GLUCOSE [3]: 177.67 mg/dL | LACTATE DEHYDROGENASE [3]: 97.67 u/L | LIPASE [3]: 16.33 u/L | PHOSPHORUS [3]: 10.83 mg/dL | POTASSIUM [3]: 5.77 MEQ/L | SODIUM [3]: 143.33 MEQ/L | TOTAL BILIRUBIN [3]: 0.33 mg/dL | TOTAL PROTEIN [3]: 6.37 G/DL | URIC ACID [3]: 0.17 mg/dL | ABSOLUTE BASOPHIL [4]: 280 cells/µL | ABSOLUTE EOSINOPHIL [4]: 220 cells/µL | ABSOLUTE LYMPHOCYTE [4]: 9970 cells/µL | ABSOLUTE MONOCYTE [4]: 370 cells/µL | BASOPHIL [4]: 2.3% | EOSINOPHIL [4]: 2.07% | ERYTHROCYTE COUNT [4]: 6.92 x10E6/uL | HEMATOCRIT [4]: 45.73% | HEMOGLOBIN [4]: 14.7 G/DL | LEUKOCYTE COUNT [4]: 12.17 x10E3/uL | LYMPHOCYTE [4]: 81.03% | MEAN CORPUSCULAR HEMOGLOBIN [4]: 21.23 pg | MEAN CORPUSCULAR HEMOGLOBIN CONCENTRATION [4]: 32.1 G/DL | MEAN CORPUSCULAR VOLUME [4]: 66.07 fL | MONOCYTE [4]: 3.03% | NEUTROPHIL [4]: 11.03% | PLATELET COUNT [4]: 1214.67 x10E3/uL | ALANINE AMINOTRANSFERASE [4]: 43.33 u/L | ALBUMIN [4]: 3.93 G/DL | ALKALINE PHOSPHATASE [4]: 434.67 u/L | ASPARTATE AMINOTRANSFERASE [4]: 98.33 u/L | BLOOD UREA NITROGEN [4]: 16 mg/dL | CARBON DIOXIDE [4]: 43.33 mmol/L | CHLORIDE [4]: 103 MEQ/L | CHOLESTEROL [4]: 76.33 mg/dL | CREATINE PHOSPHOKINASE [4]: 214.67 u/L | CREATININE [4]: 0.43 mg/dL | GLUCOSE [4]: 167.67 mg/dL | LACTATE DEHYDROGENASE [4]: 99.33 u/L | LIPASE [4]: 12 u/L | PHOSPHORUS [4]: 11 mg/dL | POTASSIUM [4]: 7.1 MEQ/L | SODIUM [4]: 144 MEQ/L | TOTAL BILIRUBIN [4]: 0.33 mg/dL | TOTAL PROTEIN [4]: 6.37 G/DL | URIC ACID [4]: 0.97 mg/dL | ABSOLUTE BASOPHIL [5]: 86.7 cells/µL | ABSOLUTE EOSINOPHIL [5]: 120 cells/µL | ABSOLUTE LYMPHOCYTE [5]: 11100 cells/µL | ABSOLUTE MONOCYTE [5]: 270 cells/µL | BASOPHIL [5]: 0.63% | EOSINOPHIL [5]: 0.9% | ERYTHROCYTE COUNT [5]: 7.18 x10E6/uL | HEMATOCRIT [5]: 44.8% | HEMOGLOBIN [5]: 14.83 G/DL | LEUKOCYTE COUNT [5]: 13.05 x10E3/uL | LYMPHOCYTE [5]: 85.27% | MEAN CORPUSCULAR HEMOGLOBIN [5]: 20.7 pg | MEAN CORPUSCULAR HEMOGLOBIN CONCENTRATION [5]: 33.13 G/DL | MEAN CORPUSCULAR VOLUME [5]: 62.43 fL | MONOCYTE [5]: 2.07% | NEUTROPHIL [5]: 10.57% | PLATELET COUNT [5]: 1282.67 x10E3/uL | ALANINE AMINOTRANSFERASE [5]: 66 u/L | ALBUMIN [5]: 3.73 G/DL | ALKALINE PHOSPHATASE [5]: 389.33 u/L | ASPARTATE AMINOTRANSFERASE [5]: 161.67 u/L | BLOOD UREA NITROGEN [5]: 16 mg/dL | CARBON DIOXIDE [5]: 40 mmol/L | CHLORIDE [5]: 106.67 MEQ/L | CHOLESTEROL [5]: 69.67 mg/dL | CREATINE PHOSPHOKINASE [5]: 169 u/L | CREATININE [5]: 0.4 mg/dL | GLUCOSE [5]: 172.33 mg/dL | LACTATE DEHYDROGENASE [5]: 94.33 u/L | LIPASE [5]: 11.33 u/L | PHOSPHORUS [5]: 10.2 mg/dL | POTASSIUM [5]: 6.1 MEQ/L | SODIUM [5]: 147.33 MEQ/L | TOTAL BILIRUBIN [5]: 0.3 mg/dL | TOTAL PROTEIN [5]: 6.03 G/DL | URIC ACID [5]: 0.97 mg/dL
